pEC50: −log10 of the molar value.
Key:
Assay type in all cases: binding
[1] = system: antisense TeloDNA; assay: FP assay, full-length TRF2 protein with FAM labeled antisense TeloDNA; settings: FAM labeled oligo
[2] = system: antisense TERRA; assay: FP assay, full-length TRF2 protein with FAM labeled antisense TERRA; settings: FAM labeled oligo
[3] = system: TERRA; assay: FP assay, FITC labeled TRF2 peptide with TERRA; settings: 10 nM FITC peptide, read-out: EC50 (affinity), peptide binding to TERRA
Procedure: (§1) All the nucleic acids, peptides and chemicals were dissolved in buffer containing 20 mM HEPES pH7.5, 150 mM salt (KCl, NaCl, LiCl) at the stock concentration of 1 mM. For peptide and nucleic acid interactions, 25μL of each nucleic acids with a sequential twofold dilutions starting from 50 μM was added into each well of 96-well plate followed by adding 25μL of 10 nM FITC labeled TRF2 peptide. For compounds and nucleic acid interactions, 20μL of each compounds with a sequential twofold dilutions starting from 50 μM were added into each well of 96-well plate followed by adding 5μL of 20 ng/mL tRNA and 25μL of 10 nM FAM labeled nucleic acids. For inhibition assay, 5μL FITC labeled TRF2 GAR peptide (10 nM final concentration) and 10 μL oligos (5 μM final concentration) were mixed, followed by adding 5μL of each compound with a sequential twofold dilutions starting from 50 μM into each well of 384-well plate. All components were mixed thoroughly, and the plate was incubated at room temperature for 1 h before placing in an Envision Plate Reader for reading at 495/520 nm. All data curves were fitted using Prism 8.0.

[4] = system: antisense TERRA; assay: FP assay, FITC labeled TRF2 peptide with antisense TERRA; settings: 10 nM FITC peptide
Procedure: as §1

[5] = system: antisense TeloDNA; assay: FP assay, FITC labeled TRF2 peptide with antisense TeloDNA; settings: 10 nM FITC peptide
Procedure: as §1

[6] = system: TeloDNA; assay: FP assay, FITC labeled TRF2 peptide with TeloDNA; settings: 10 nM FITC peptide, read-out: EC50 (affinity), peptide binding to TeloDNA
Procedure: as §1

Row | Substance | full-length TRF2 affinity for antisense TeloDNA [1] | full-length TRF2 affinity for antisense TERRA [2] | pEC50 [3] | peptide binding to antisense TERRA [4] | peptide binding to antisense TeloDNA [5] | pEC50 [6]
1 | full-length TRF2 protein: purified recombinant full-length TRF2 protein | lacks measurable affinity | lacks measurable affinity |  |  |  | 
2 | RAAGRRASRSSGRARRGRHEPGLGGPAERGAGEAR [TRF2 GAR, 35-residue peptide containing the GAR domain of TRF2] |  |  | 5.57 | Neither TRF2 GAR nor the Ala mutant showed any detectable binding | Neither TRF2 GAR nor the Ala mutant showed any detectable binding | 5.05

From publication PMC7876106 (Scientific Reports, 2021)
